# Reference: US20240190889A1, “NEW CYCLOPENTA-THIENO-DIAZEPINE DERIVATIVES AS GABA A GAMMA1 POSITIVE ALLOSTERIC MODULATORS” (Hoffmann-La Roche Inc., priority 2021, published 2024)
# Like-named read-outs stand apart in the source and are kept apart here.
# Experiments:
# [1] = biological target: h-GABA-A α2β2γ1 receptor expressed in Xenopus laevis oocytes (Homo sapiens (Human), UniProt P47869+Q8N1C3); assay: Two-electrode voltage clamp electrophysiology in Xenopus oocytes expressing GABAA receptors; assay type: cell-based; settings: for Efficacy (GABA)%: % modulation of GABA EC20 = 100*(Fold increase-1), compound at 30-fold Ki α2β2γ1; for Fold increase h-GABA-A α2β2γ1 oocyte @ 30-fold Ki: GABA EC20, test compound at approx. 30-fold its Ki α2β2γ1, at least 3 oocytes
# Source text: Functional Expression of GABAA Receptors:
# Xenopus Oocytes Preparation
# Xenopus laevis oocytes at maturation stages V-VI were used for the expression of cloned mRNA encoding GABAA receptor subunits. Oocytes ready for RNA micro-injection were bought from Ecocyte, Castrop-Rauxel, Germany and stored in modified Barth's medium (composition in mM: NaCl 88, KCl 1, NaHCO3 2.4, HEPES 10, MgSO4 0.82, CaNO3 0.33, CaCl2 0.33, pH=7.5) at 20 C. until the experiment.
# Xenopus Oocytes Microinjection
# Oocytes were plated in 96-well plates for microinjection using the Roboinject automated instrument (MultiChannelSystems, Reutlingen, Germany). Approximately 50 nL of an aqueous solution containing the RNA transcripts for the subunits of the desired GABAA receptor subtype was injected into each oocyte. […] Oocytes were kept in modified Barth's medium (composition in mM: NaCl 88, KCl 1, NaHCO3 […], HEPES 10, MgSO4 0.82, CaNO3 0.33, CaCl2 0.33, pH=7.5) at 20° C. until the experiment.
# Electrophysiological experiments were performed using the Roboocyte instrument (MultiChannelSystems, Reutlingen, Germany) on days 3 to 5 after the micro-injection of mRNA. During the experiment the oocytes were constantly superfused by a solution containing (in mM) NaCl 90, KCl 1, HEPES 5, MgCl: 1, CaCl, 1 (pH 7.4). Oocytes were impaled by two glass microelectrodes (resistance: 0.5-0.8 MS2) which were filled with a solution containing KCl 1M +K-acetate 1.5 M and voltage-clamped to −80 mV. The recordings were performed at room temperature using the Roboocyte two-electrode voltage clamp system (Multichannelsystem). After an initial equilibration period of 1.5 min GABA was added for 1.5 min at a concentration evoking approximately 20% of a maximal current response (EC20). After another rest interval of 2.5 min GABA was again added evoking a response of similar amplitude and shape. […] Current traces were recorded at a digitization rate of 10 Hz during and shortly before and after the GABA application.
# Each compound and concentration was tested on at least 3 oocytes. Different oocytes were used for different compound concentrations.
# For the analysis, the digitized current traces of the first and second GABA response were superimposed and, if necessary, rescaled to equal maximal amplitudes. The ratio between the two responses during the time interval of test compound application was calculated point by point. The extremum of the resulting “ratio trace” was taken as the efficacy (“Fold increase”) of the compound expressed as “% modulation of GABA EC” (100* (Fold increase-1)).
# [2] = biological target: human GABAA α2β2γ1 receptor (Homo sapiens (Human), UniProt P47869+Q8N1C3); assay: Radioligand binding assay, competition for [3H]RO7239181, γ1-containing GABAA subtypes
# Method: Membrane Preparation and Binding Assay for γ1-containing GABAA Subtypes
# The affinity of compounds at GABAA γ1 subunit-containing receptors was measured by competition for [^3H]RO7239181 (67.3 Ci/mmol: Roche) binding to membranes from HEK293F cells (ThermoFisher R79007) expressing human (transiently transfected) receptors of composition α5β2γ1, α2β2γ1, α1β2γ1.
# Harvested pellets from HEK293F cells expressing the different GABAA receptor subtypes were resuspended in Mannitol Buffer pH 7.2-7.4 (Mannitol 0.29 M, Tricthylamine 10 mM. Acetic acid 10 mM. EDTA 1 mM plus protease inhibitors (20 tablets Complete. Roche Diagnostics Cat. No. 05 056 489 001 per liter)), washed two times and then resuspended at 1:10 to 1:15 dilution in the same buffer. Cell disruption was performed by stirring the suspension in a Parr vessel #4637 at 435 psi for 15 minutes, and then the suspensions were centrifuged at 1000×g for 15 minutes at 4° C. (Beckman Avanti J-HC: rotor JS-4.2). The supernatant (S1) was transferred in a 21 Schott flask and the pellet (P1) was resuspended with Mannitol Buffer up to 175 ml. The resuspended pellet was transferred into a 250 ml Corning centrifugal beaker and centrifuged at 1500 ×g for 10 minutes at 4° C. (Beckman Avanti J-HC: rotor JS-4.2). The supernatant (S1) was then transferred in the 21 Schott flask and the pellet was discarded. The supernatants (S1) were centrifuged in 500ml Beckman polypropylene centrifugal beaker at 15 000×g for 30 minutes at 4° C. (Beckman Avanti J-20 XP; rotor JLA-10.500). The pellet (P2) was resuspended with Mannitol Buffer 1:1 and frozen at −80° C. The supernatant (S2) was centrifuged in 100 ml Beckman polypropylene centrifugal tubes at 48000×g for 50 minutes at 4 °C (Beckman Avanti J-20 XP: rotor JA-18). The supernatant (S3) was discarded and the pellet (P3) was resuspended with 1:1 Mannitol Buffer. The P2 and P3 protein concentration was determined with the BIORAD Standard assay method with bovine serum albumin as standard and measured on the NANO-Drop 1000. The membrane suspension was aliquots (500μl per tube) and stored at −80° C. until required.
# Membrane homogenates were resuspended and polytronised (Polytron PT1200E Kinematica AG) in Potassium Phosphate 10 mM, KCl 100 mM binding buffer at pH 7.4 to a final assay concentration determined with a previous experiment.
# Radioligand binding assays were carried out in a volume of 200 μL (96-well plates) which contained 100 μL of cell membranes. […] Assays were incubated to equilibrium for 1 hour at 4° C. and then, membranes were filtered onto unifilter (96-well white microplate with bonded GF/C filters preincubated 20-50 minutes in 0.3% Polyethylenimine) with a Filtermate 196 harvester (Packard BioScience) and washed 4 times with cold Potassium Phosphate 10 mM pH 7.4. KCl 100 mM binding buffer. After anhydrousing, filter-retained radioactivity was detected by liquid scintillation counting. Ki values were calculated using Excel-Fit (Microsoft) and are the means of two determinations.
# [3] = read-out: Ki h-GABAA α2β2γ1, membranes from HEK293F cells, [3H]RO7239181 20-30 nM, mean of two determinations
Structure (SMILES),Efficacy (GABA)% [1],Fold increase h-GABA-A α2β2γ1 oocyte @ 30-fold Ki [1],Ki [2],"Ki [2, 3]"
"Cc1nnc2n1-c1sc3c(c1C(c1c(F)cccc1F)=N[C@H]2C)C[C@@H](C(F)(F)F)C3 [Example 13, (7S,13R)-9-(2,6-difluorophenyl)-3,7-dimethyl-13-(trifluoromethyl)-16-thia-2,4,5,8-tetrazatetracyclo [8.6.0.02,6.011,15]hexadeca-1(10),3,5,8,11(15)-pentaene]",51%,1.51,16.2 nM,16.2 nM
"C[C@@H]1N=C(c2c(F)cccc2F)c2c(sc3c2C[C@@H](C(F)F)C3)-n2nc(C(=O)NCCO)nc21 [Example 18, (7S,13R)-13-(difluoromethyl)-9-(2,6-difluorophenyl)-N-(2-hydroxyethyl)-7-methyl-16-thia-2,3,5,8-tetrazatetracyclo [8.6.0.02,6.011,15]hexadeca-1(10),3,5,8,11(15)-pentaene-4-carboxamide]",65%,1.65,5.7 nM,5.7 nM
"C[C@@H]1N=C(c2c(F)cccc2Cl)c2c(sc3c2C[C@@H](C(F)F)C3)-n2c(-c3cccnn3)nnc21 [Example 12, (7S,13R)-9-(2-chloro-6-fluoro-phenyl)-13-(difluoromethyl)-7-methyl-3-pyridazin-3-yl-16-thia-2,4,5,8-tetrazatetracyclo [8.6.0.02,6.011,15]hexadeca-1(10),3,5,8,11(15)-pentaene]",62%,1.62,13.4 nM,13.4 nM
"Fc1cccc(F)c1C1=NCc2nnc(-c3cccnn3)n2-c2sc3c(c21)C[C@@H](C(F)F)C3 [Example 10, (13R)-13-(difluoromethyl)-9-(2,6-difluorophenyl)-3-pyridazin-3-yl-16-thia-2,4,5,8-tetrazatetracyclo [8.6.0.02,6.011,15]hexadeca-1(10),3,5,8,11(15)-pentaene]",47%,1.47,3 nM,3 nM
"Cc1nnc2n1-c1sc3c(c1C(c1c(F)cccc1F)=NC2)C[C@@H](C)C3 [Example 14, (13R)-9-(2,6-difluorophenyl)-3,13-dimethyl-16-thia-2,4,5,8-tetrazatetracyclo [8.6.0.02,6.011,15]hexadeca-1(10),3,5,8,11(15)-pentaene]",68%,1.68,2.8 nM,2.8 nM
"Cc1nnc2n1-c1sc3c(c1C(c1c(F)cccc1F)=NC2)C[C@@H](C#N)C3 [Example 2, (13R)-9-(2,6-difluorophenyl)-3-methyl-16-thia-2,4,5,8-tetrazatetracyclo [8.6.0.02,6.011,15]hexadeca-1(10),3,5,8,11(15)-pentaene-13-carbonitrile]",35%,1.35,42.7 nM,42.7 nM
"Cc1nnc2n1-c1sc3c(c1C(c1c(F)cccc1Cl)=N[C@H]2C)C[C@@H](C(F)F)C3 [Example 9, (7S,13R)-9-(2-chloro-6-fluoro-phenyl)-13-(difluoromethyl)-3,7-dimethyl-16-thia-2,4,5,8-tetrazatetracyclo [8.6.0.02,6.011,15]hexadeca-1(10),3,5,8,11(15)-pentaene]",38%,1.38,3.6 nM,3.6 nM
"Cc1nc2n(n1)-c1sc3c(c1C(c1c(F)cccc1F)=N[C@H]2C)C[C@H](C(F)F)C3 [Example 17, (7S,13S)-13-(difluoromethyl)-9-(2,6-difluorophenyl)-4,7-dimethyl-16-thia-2,3,5,8-tetrazatetracyclo [8.6.0.02,6.011,15]hexadeca-1(10),3,5,8,11(15)-pentaene]",25%,1.25,57.9 nM,57.9 nM
"Fc1cccc(Cl)c1C1=NCc2nnc(C3CC3)n2-c2sc3c(c21)C[C@@H](C(F)F)C3 [Example 6, (13R)-9-(2-chloro-6-fluoro-phenyl)-3-cyclopropyl-13-(difluoromethyl)-16-thia-2,4,5,8-tetrazatetracyclo [8.6.0.02,6.011,15]hexadeca-1(10),3,5,8,11(15)-pentaene]",85%,1.85,6.6 nM,6.6 nM
"Fc1cccc(F)c1C1=NCc2nnc(C3CC3)n2-c2sc3c(c21)C[C@@H](C(F)F)C3 [Example 7, (13R)-3-cyclopropyl-13-(difluoromethyl)-9-(2,6-difluorophenyl)-16-thia-2,4,5,8-tetrazatetracyclo [8.6.0.02,6.011,15]hexadeca-1(10),3,5,8,11(15)-pentaene]",71%,1.71,6.4 nM,6.4 nM
"C[C@@H]1N=C(c2c(F)cccc2Cl)c2c(sc3c2C[C@@H](C(F)F)C3)-n2c(C3CC3)nnc21 [Example 11, (7S,13R)-9-(2-chloro-6-fluoro-phenyl)-3-cyclopropyl-13-(difluoromethyl)-7-methyl-16-thia-2,4,5,8-tetrazatetracyclo [8.6.0.02,6.011,15]hexadeca-1(10),3,5,8,11(15)-pentaene]",44%,1.44,10.3 nM,10.3 nM
"C[C@@H]1N=C(c2c(F)cccc2F)c2c(sc3c2C[C@@H](C(F)F)C3)-n2c(C3CC3)nnc21 [Example 8, (7S,13R)-3-cyclopropyl-13-(difluoromethyl)-9-(2,6-difluorophenyl)-7-methyl-16-thia-2,4,5,8-tetrazatetracyclo [8.6.0.02,6.011,15]hexadeca-1(10),3,5,8,11(15)-pentaene]",37%,1.37,4.6 nM,4.6 nM
